The target in assay [1] is T1, MBP-LBD1056 (ligand-binding domain of MCP SO_1056) (Shewanella oneidensis, UniProt Q8EHZ8).
T1 sequence (Q8EHZ8 29-278): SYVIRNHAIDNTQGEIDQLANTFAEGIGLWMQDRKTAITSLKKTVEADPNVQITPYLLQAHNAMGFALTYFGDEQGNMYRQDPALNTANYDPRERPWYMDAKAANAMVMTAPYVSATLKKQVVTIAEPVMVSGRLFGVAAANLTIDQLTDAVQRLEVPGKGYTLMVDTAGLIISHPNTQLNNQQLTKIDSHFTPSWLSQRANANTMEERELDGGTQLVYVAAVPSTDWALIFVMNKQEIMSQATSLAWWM
Kind of assay: isothermal titration calorimetry. Conditions: read-out: apparent KD.

The target in assay [2] is MBP-LBD1056 (ligand-binding domain of MCP SO_1056) (Shewanella oneidensis, UniProt Q8EHZ8, N170D).

Each structure is given as a SMILES string.

MBP-LBD1056 (ligand-binding domain of MCP SO_1056) (Shewanella oneidensis, UniProt Q8EHZ8, N170D), sequence (Q8EHZ8 entry or part of it N170D): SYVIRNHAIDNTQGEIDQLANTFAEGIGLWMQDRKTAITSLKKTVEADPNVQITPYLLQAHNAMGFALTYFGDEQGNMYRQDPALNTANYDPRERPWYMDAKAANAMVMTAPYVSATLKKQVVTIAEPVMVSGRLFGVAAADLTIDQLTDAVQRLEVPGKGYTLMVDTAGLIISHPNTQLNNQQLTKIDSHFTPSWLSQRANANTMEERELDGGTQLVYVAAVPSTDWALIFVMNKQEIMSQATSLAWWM

In the case of `O=C(O)C[C@H](O)C(=O)O` [L-malate], in assay [1], the Kd came out at 3.4 ± 0.3 µM. Further, the “dTm at 1 mM” value in assay [2] is 2.4 °C.

The record behind these values is PMC9796306, “Multiple detection of both attractants and repellents by the dCache‐chemoreceptor SO_1056 of Shewanella oneidensis” (The Febs Journal, 2022).
